Results on 48 compounds are retold here after paper PMC11617668, “Developing Allosteric Inhibitors of SARS‐CoV‐2 RNA‐Dependent RNA Polymerase” (Chemmedchem, 2024).

Series [1] concerns the target SARS‐CoV‐2 RdRp complex (nsp12, nsp7, nsp8) (Severe acute respiratory syndrome coronavirus 2, UniProt P0DTD1). In words: Fluorescence-based RdRp polymerase assay (SYBR Green I RNA extension). The series is classed as biochemical. The following applies: for remaining activity at 10 µM: 50 min, read-out: residual activity (RA) of the SARS‐CoV‐2 RdRp complex; for residual activity (RA) of the SARS‐CoV‐2 RdRp complex: 10 μM screening, AUC with compound / AUC of non-inhibited reaction x 100.

The next series is described as follows: in vitro. The following applies: human.
Series [2] has as its system SARS‐CoV‐2. To be noted: Severe acute respiratory syndrome coronavirus 2, Calu-3, 72 h.
Experimental: (§1) Briefly, two‐fold fold serial dilutions of compounds were added in triplicate in a 384‐well plate with 15,000 Calu‐3 cells in DMEM medium with 2 % FBS, 100 U of penicillin/ml and 100 μg of streptomycin/ml (all Merck). After 1 h incubation SARS‐CoV‐2 was added at multiplicity of infection 0.01. Following three days incubation at 37 °C in 5 % CO2 the cell viability was determined by addition of XTT solution (Sigma‐Aldrich) for 4 h and the absorbance was measured using EnVision plate reader (Perkin Elmer). Drug concentrations required to reduce viral cytopathic effect by 50 % (EC50) were calculated using nonlinear regression from plots of percentage cell viability versus log10 drug concentration using GraphPad Prism v.9.0.0 (GraphPad Software). Cytotoxicity was evaluated by incubating the same two‐fold serial dilutions of each compound with Calu‐3 cells as above but without virus. Following three days of incubation at 37 °C in 5 % CO2, the cell viability was determined by the addition of XTT solution as above. The compound concentrations resulting in a 50 % reduction of absorbance (CC50) were calculated from plots of the percentage of absorbance versus log10 drug concentration as above.
The nature of series [3]: Kinetic solubility test in enzymatic assay medium. The series is classed as physicochemical. The following applies: aqueous HEPES buffer with 5 % DMSO, pH 8, aqueous with cosolvent or surfactant or cyclodextrin, kinetic from dmso stock. As to the method:
Kinetic solubility tests were performed in the medium used for the enzymatic assay–aqueous solution of HEPES buffer with 5 % DMSO. […] This poor aqueous solubility represents a big hurdle in the development of potential antivirals and the improvement of solubility will be considered in further structural optimization efforts of this class of compounds.

For series [4], the system named is SARS‐CoV‐2. To be noted: cited from earlier work.

Experimental for in vitro: as §1

As for `COC(=O)c1cc(NC(=O)Nc2ccc(C#N)cc2)cc(C(=O)OC)c1` [Compound 7, Dimethyl 5‐(3‐(4‐Cyanophenyl)ureido)isophthalate], the remaining activity at 10 µM in series [1] was 100%.
Regarding `COC(=O)c1cc(NC(=O)Nc2ccccc2)cc(C(=O)OC)c1` [Compound 23], in series [1], the remaining activity at 10 µM came out at 100%.
In the case of “3,4‐Dichloro‐N‐(6‐(Trifluoromethyl)‐1H‐Benzo[d]imidazol‐2‐yl)benzamide [Compound 57]”, in series [1], the “residual activity (RA) of the SARS‐CoV‐2 RdRp complex” value (“residual activity (RA)” below) was 100%.
Turning to `O=[N+]([O-])c1cccc(NC(=S)Nc2ccc(Cl)c(C(F)(F)F)c2)c1` [Compound 43], the remaining activity at 10 µM in series [1] was found to be 77%.
In the case of `CCCCNC(=O)Nc1cc(C(=O)OC)cc(C(=O)OC)c1` [Compound 5, Dimethyl 5‐(3‐Butylureido)isophthalate], in series [1], the remaining activity at 10 µM turned out to be 100%.
Turning to `CCNS(=O)(=O)c1ccc(NC(=O)Nc2cccc([N+](=O)[O-])c2)cc1` [Compound 35], the remaining activity at 10 µM in series [1] turned out to be 100%.
“1‐(3,5‐Dichlorophenyl)‐3‐(3‐(Trifluoromethyl)phenyl)guanidine Hydrochloride [Compound 54]”: in series [1], the “residual activity (RA)” value stood at 100%.
Consider `O=C(Cc1ccc([N+](=O)[O-])cc1)Nc1cc(Cl)cc(Cl)c1` [Compound 49, N‐(3,5‐Dichlorophenyl)‐2‐(4‐Nitrophenyl)acetamide], for which, in series [1], the remaining activity at 10 µM stood at 100%.
`O=C(Nc1cccc([N+](=O)[O-])c1)Nc1cc(C(F)(F)F)cc(C(F)(F)F)c1` [Compound 19, 1‐(3,5‐Bis(trifluoromethyl)phenyl)‐3‐(3‐Nitrophenyl)urea] gave a CC50 at 3 days in the series “in vitro” of 3.4 µM. In series [1], the remaining activity at 10 µM amounted to 62%. The compound also registered an EC50 in the series on SARS‐CoV‐2 [2] greater than 3 µM.
`COC(=O)c1cc(NC(=O)Nc2cc([N+](=O)[O-])cc([N+](=O)[O-])c2)cc(C(=O)OC)c1` [Compound 12, Dimethyl 5‐(3‐(3,5‐Dinitophenyl)ureido)isophthalate]: the remaining activity at 10 µM in series [1] amounted to 100%.
Same read-out and setting: under `COc1cc(NC(=O)Nc2cccc([N+](=O)[O-])c2)cc(OC)c1` [Compound 38] stands 100%; under `COC(=O)c1cc(NC(=O)Nc2ccc(C)cc2)cc(C(=O)OC)c1` [Compound 25], 100%; under `COC(=O)c1cc(NC(=O)Nc2ccc(S(N)(=O)=O)cc2)cc(C(=O)OC)c1` [Compound 8, Dimethyl 5‐(3‐(4‐Sulfamoylphenyl)ureido)isophthalate], 100%.
Same read-out and setting: under `O=C(Nc1ccc([N+](=O)[O-])cc1)Nc1ccccc1Cc1ccccc1` [Compound 42] stands 63%; under `COC(=O)c1cc(NC(=O)Nc2cccc([N+](=O)[O-])c2)cc(C(=O)OC)c1` [Compound 17, Dimethyl 5‐(3‐(3‐Nitrophenyl)ureido)isophthalate], 51%; under `O=C(Nc1cccc([N+](=O)[O-])c1)Nc1cccc([N+](=O)[O-])c1` [Compound 18, 1,3‐Bis(3‐nitrophenyl)urea], 100%.
On the same count and under the same terms, under `O=C(Nc1cccc([N+](=O)[O-])c1)Nc1ccc2ccccc2c1` [Compound 30] stands 73%; under `COC(=O)c1cc(NC(=O)Nc2cccc(F)c2)cc(C(=O)OC)c1` [Compound 26], 100%.
For `COC(=O)c1cc(NC(=O)Nc2cccc([N+](=O)[O-])c2)cc(C(=O)O)c1` [Compound 20, 3‐(Methoxycarbonyl)‐5‐(3‐(3‐Nitrophenyl)ureido)benzoic Acid], in series [1], the “residual activity (RA)” value was “complete loss of activity” and the remaining activity at 10 µM is 100%.
Consider `COC(=O)c1cc(NC(=O)Nc2cc(C(F)(F)F)cc(C(F)(F)F)c2)cc(C(=O)OC)c1` [Compound 11, Dimethyl 5‐(3‐(3,5‐Bis(trifluoromethyl)phenyl)ureido)isophthalate], for which the CC50 at 3 days in the series “in vitro” is 5.1 µM. Moreover, the remaining activity at 10 µM in series [1] amounted to 65%. Further, the EC50 in the series with SARS‐CoV‐2 [2] is greater than 5 µM.
As for `COC(=O)c1cc(NC(=O)Nc2ccc([N+](=O)[O-])cc2)cc(C(=O)OC)c1` [Compound 22], the remaining activity at 10 µM in series [1] stood at 50%.
As for `O=C(Nc1cccc([N+](=O)[O-])c1)Nc1ccc(Cl)c(C(F)(F)F)c1` [Compound 29], the remaining activity at 10 µM in series [1] amounted to 58%.
In the case of `O=C(Nc1cc(Cl)cc(Cl)c1)Nc1nc2ccc(C(F)(F)F)cc2[nH]1` [Compound 60, 1‐(3,5‐Dichlorophenyl)‐3‐(6‐(Trifluoromethyl)‐1H‐Benzo[d]imidazol‐2‐yl)urea], in “in vitro”, the CC50 at 3 days is 0.65 µM. For the same compound, the remaining activity at 10 µM in series [1] was 28%. The compound also came in with a concentration for a half-maximal effect (EC50) with SARS‐CoV‐2 [2] greater than 0.65 µM. The compound further had a solubility (kinetic) in series [3] of less than 2.1 µM.
Regarding `O=C(Nc1cccc([N+](=O)[O-])c1)NC1CC1` [Compound 40], the remaining activity at 10 µM in series [1] is 100%.
For the compound `CC(=O)Nc1cccc(NC(=O)Nc2cccc([N+](=O)[O-])c2)c1` [Compound 37], the remaining activity at 10 µM in series [1] was 100%.
Still for that read-out and setting: in the case of `COC(=O)c1ccc(C(=O)OC)c(NC(=O)Nc2cccc([N+](=O)[O-])c2)c1` [Compound 36] it was 100%.
On the same count and under the same terms, in the case of `O=C(Cc1cc(Cl)cc(Cl)c1)Nc1ccc([N+](=O)[O-])cc1` [Compound 52, 2‐(3,5‐Dichlorophenyl)‐N‐(4‐Nitrophenyl)acetamide] it was 100%; in that of `COc1ccc(NC(=O)Nc2cc(C(=O)OC(C)C)cc(C(=O)OC(C)C)c2)c(OC)c1` [Compound 27], 100%; in that of `COC(=O)c1cc(NC(=O)Nc2cccc(C#N)c2)cc(C(=O)OC)c1` [Compound 6, Dimethyl 5‐(3‐(3‐Cyanophenyl)ureido)isophthalate], 100%.
Regarding `O=C(Nc1ccccc1)Nc1ccc(-c2ccc(C(=O)[C@@H]3CCC[C@H]3C(=O)O)cc2)cc1` [Compound A922500, A922500, reference compound], the remaining activity at 10 µM in series [1] worked out at 100%. Moreover, the “activity in cell assays against the virus” value with SARS‐CoV‐2 [4] is given as “active”.
For the compound `O=C(Nc1ccc([N+](=O)[O-])cc1)Nc1cc(Cl)cc(Cl)c1` [Compound 41], in series [1], the remaining activity at 10 µM was 40%.
In the case of `O=[N+]([O-])c1cccc(NC(=S)Nc2ccccc2Cc2ccccc2)c1` [Compound 44], in series [1], the remaining activity at 10 µM was determined as 100%.
Turning to `O=C(Nc1cc(Cl)cc(Cl)c1)c1nc2ccc(C(F)(F)F)cc2[nH]1` [Compound 58, N‐(3,5‐Dichlorophenyl)‐6‐(Trifluoromethyl)‐1H‐Benzo[d]imidazole‐2‐Carboxamide], the remaining activity at 10 µM in series [1] is 100%.
The same measure, in the same setting: in the case of `CC(=O)c1cccc(NC(=O)Nc2cc(C(=O)OC(C)C)cc(C(=O)OC(C)C)c2)c1` [Compound 28] it was 100%; in that of `O=C(Nc1ccc(C(F)(F)F)cc1)Nc1cccc([N+](=O)[O-])c1` [Compound 32], 100%.
Regarding `O=C(Nc1cc(C(=O)O)cc(C(=O)O)c1)Nc1cccc([N+](=O)[O-])c1` [Compound 21, 5‐(3‐(3‐Nitrophenyl)ureido)isophthalic acid], in series [1], the “residual activity (RA)” value is reported as “complete loss of activity” and the remaining activity at 10 µM came to 100%.
As to `CNC(=O)c1cc(Oc2ccc(NC(=O)Nc3ccc(Cl)c(C(F)(F)F)c3)c(F)c2)ccn1` [regorafenib, reference compound], the remaining activity at 10 µM in series [1] was 76%. Also, the “activity in cell assays against the virus” value in the series on SARS‐CoV‐2 [4] is given as “active”.
As to `O=C(Nc1cccc([N+](=O)[O-])c1)Nc1cnccn1` [Compound 39], the remaining activity at 10 µM in series [1] came out at 100%.
As for `O=C(Nc1ccc(Cl)cc1)Nc1cccc([N+](=O)[O-])c1` [Compound 33], the remaining activity at 10 µM in series [1] stood at 100%.
The same measure, in the same setting: under `COC(=O)c1cc(NC(=O)Nc2ccncc2)cc(C(=O)OC)c1` [Compound 14, Dimethyl 5‐(3‐(Pyridin‐4‐yl)ureido)isophthalate] stands 100%.
As to `CNC(=O)c1cc(Oc2ccc(NC(=O)Nc3ccc(Cl)c(C(F)(F)F)c3)cc2)ccn1` [sorafenib], the cell infection entry in the series on SARS‐CoV‐2 [4] is “strongly inhibited cell infection”.
The compound `COC(=O)c1cc(NC(=O)Nc2cccc(C(F)(F)F)c2)cc(C(=O)OC)c1` [Compound 9, Dimethyl 5‐(3‐(3‐Trifluoromethylphenyl)ureido)isophthalate] displayed a CC50 at 3 days in “in vitro” of 10.6 µM. In addition, the remaining activity at 10 µM in series [1] was found to be 70%. The EC50 in the series with SARS‐CoV‐2 [2] is greater than 10 µM.
With `COc1cc(NC(=O)Nc2cccc(CNC(=O)O[C@H]3CCOC3)c2)ccc1-c1cnco1` [merimepodib, reference compound], the remaining activity at 10 µM in series [1] stood at 100%. Further, the viral replication entry with SARS‐CoV‐2 [4] (in combination with remdesivir) is “completely suppress viral replication”.
Consider `O=C(Nc1ccc(C(=O)O)cc1)Nc1cccc([N+](=O)[O-])c1` [Compound 34], for which the remaining activity at 10 µM in series [1] came out at 100%.
The same measure, in the same setting: under `O=C(Nc1cc(Cl)cc(Cl)c1)C(=O)Nc1cccc(C(F)(F)F)c1` [Compound 53, N ^1‐(3,5‐Dichlorophenyl)‐N ^2‐(3‐(Trifluoromethyl)phenyl)oxalamide] stands 100%; under `O=C(Nc1cccc([N+](=O)[O-])c1)Nc1ccccc1Cc1ccccc1` [Compound 31], 78%; under `CCOC(=O)c1cccc(NC(=O)Nc2cc(C(=O)OC)cc(C(=O)OC)c2)c1` [Compound 10, Dimethyl 5‐(3‐(3‐(Ethoxycarbonyl)phenyl)ureido)isophthalate], 100%.
As for `COC(=O)c1cc(NC(=O)Nc2cccc(C(=O)O)c2)cc(C(=O)OC)c1` [Compound 13, 3‐(3‐(3,5‐Bis(methoxycarbonyl)phenyl)ureido)benzoic Acid], in series [1], the remaining activity at 10 µM worked out at 100%.
